# Source: US9974832B2, “Therapeutic effects of bryostatins, bryologs, and other related substances on head trauma-induced memory impairment and brain injury” (Cognitive Research Enterprises, Inc., priority 2007, dated 2018)
# Tests used:
# [1] = compared with phorbol; cited from earlier work
# PKC [2] = settings: read-out: affinity for PKC, A-ring bryologs; cited from earlier work
# [3] = in vivo; cited from earlier work
# tumor promotion = settings: cited from earlier work
# [4] = system: head trauma-induced brain injury and memory impairment; assay: minimal traumatic brain injury in mice, Morris Water Maze; assay type: in vivo; settings: treatment started one hour after head trauma
# Protocol: Minimal traumatic brain injury (TBI) was produced in mice by a concussive event using a 30 g mass. One hour post trauma, the mice received 20 or 30 μg bryostatin per kg doses by intraperitoneal injection. The injections were repeated twice weekly for a total of 5 treatments. The effects on learning and memory of bryostatin treatment in treated animals was tested in the Morris Water Maze.
# The platform was removed and the animals were tested for how long they searched the correct quadrant versus the incorrect quadrants. In the passive avoidance procedure the animal remembers the distinctive environment in which a mild electric shock is delivered and avoids it on a second occasion.
# Minimal traumatic brain injury (TBI) was produced in mice by a concussive event using a 30 g mass. One hour post trauma, the mice received 30 μg bryostatin per kg doses by intraperitoneal injection. The injections were repeated twice weekly for a total of 5 treatments. The escape latencies in a Morris Water Maze of mice treated with bryostatin after minimal TBI were compared to animals with minimal TBI, control animals receiving no TBI or bryostatin, and animals receiving bryostatin only.
# Minimal traumatic brain injury (TBI) was produced in mice by a concussive event using a 30 g mass. One hour post trauma, the mice received 20 μg bryostatin per kg doses by intraperitoneal injection. […]
# NCI 60 cell line screen = settings: cited from earlier work
# [5] = system: squamous cell carcinoma and melanoma; settings: used topically; cited from earlier work
# PKCϵ = molecular target: T1, PKCϵ (Homo sapiens, UniProt Q02156); settings: cited from earlier work
# T1 sequence (Q02156 1-737): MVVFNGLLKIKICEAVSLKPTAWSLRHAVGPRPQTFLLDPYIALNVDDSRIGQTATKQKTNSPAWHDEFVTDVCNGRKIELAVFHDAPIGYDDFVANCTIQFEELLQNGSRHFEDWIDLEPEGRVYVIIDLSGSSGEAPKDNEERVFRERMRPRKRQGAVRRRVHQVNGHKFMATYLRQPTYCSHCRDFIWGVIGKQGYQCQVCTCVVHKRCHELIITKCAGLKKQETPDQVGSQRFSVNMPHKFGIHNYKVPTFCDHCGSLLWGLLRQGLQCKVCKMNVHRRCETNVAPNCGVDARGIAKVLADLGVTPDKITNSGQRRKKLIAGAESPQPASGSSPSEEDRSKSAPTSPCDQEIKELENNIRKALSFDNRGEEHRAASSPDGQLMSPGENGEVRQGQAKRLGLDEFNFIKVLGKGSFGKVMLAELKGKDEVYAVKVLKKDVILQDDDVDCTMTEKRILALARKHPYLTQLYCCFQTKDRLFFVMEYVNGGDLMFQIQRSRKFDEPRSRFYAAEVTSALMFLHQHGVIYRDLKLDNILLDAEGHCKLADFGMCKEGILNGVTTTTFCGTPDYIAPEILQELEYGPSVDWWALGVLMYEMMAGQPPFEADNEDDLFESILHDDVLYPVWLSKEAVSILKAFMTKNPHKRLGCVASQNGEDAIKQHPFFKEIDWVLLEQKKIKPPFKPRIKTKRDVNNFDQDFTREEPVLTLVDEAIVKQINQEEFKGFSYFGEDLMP
# PKC [6] = settings: K562 cells; cited from earlier work
# [7] = system: cyclin dependent kinase 2 (Cdk2); settings: at 5 ng/ml; cited from earlier work
# [8] = system: murine leukemias and solid tumors; settings: cited from earlier work
# [9] = (−)-enantiomer; cited from earlier work
molecule,measurement,setting,value
Ingenol,toxicity,[1],much less toxicity
CCCCCCCC(=O)OC1C(=CC(=O)OC)CC2CC(CO)OC(=O)CC(O)CCOC(CCCc3ccc(Br)cc3)CC3CCOC(C=CC(C)(C)C1(O)O2)O3 (stereo not drawn) [bryolog 5],Ki,PKC [2],1.9 nM
"CCCC=CC=CC(=O)OC1C(=CC(=O)OC)CC2CC(C(C)O)OC(=O)CC(O)CC3CC(OC(C)=O)C(C)(C)C(O)(CC4CC(=CC(=O)OC)CC(C=CC(C)(C)C1(O)O2)O4)O3 (stereo not drawn) [Bryostatin 1, bryostatin-1]",main adverse reaction in humans,[3],myalgia
same,tolerability of doses in humans,[3],well tolerated in humans
same,tumor promotion activity,tumor promotion,devoid of tumor promotion activity
same,therapeutic effect on brain injury and memory impairment induced with head trauma,[4],therapeutic value against brain injury and memory impairment
CCCCCCCC(=O)OC1C(=CC(=O)OC)CC2CC(CO)OC(=O)CC(O)CCOC(C(C)(C)C)CC3CCOC(C=CC(C)(C)C1(O)O2)O3 (stereo not drawn) [bryolog 3],Ki,PKC [2],6.5 nM
CC1=CC[C@H](C)C(C)(C)[C@@H]1/C=C/C(C)=C/CC[C@@]1(CO)[C@H](CCCO)/C(=C(/C)C=O)CC[C@]1(C)O [Iripallidal],GI50 (concentration required to inhibit growth by 50%),NCI 60 cell line screen,micromolar to nanomolar range
C/C=C(/C)C(=O)O[C@H]1C(C)=C[C@]23C(=O)[C@@H](C=C(CO)[C@@H](O)[C@]12O)[C@H]1[C@@H](C[C@H]3C)C1(C)C [Ingenol-3-angelate],antitumor activity,[5],possesses antitumor activity
CCCCCCCC(=O)OC1C(=CC(=O)OC)CC2CC(CO)OC(=O)CC(O)CCOC(c3ccccc3)CC3CCOC(C=CC(C)(C)C1(O)O2)O3 (stereo not drawn) [bryolog 4],Ki,PKC [2],2.3 nM
"CCCCCC1CC1CC1CC1CCCCCCCC(=O)O (stereo not drawn) [DCP-LA, 2-[(2-pentylcyclopropyl)methyl]cyclopropaneoctanoic acid]",concentration of maximal effect,PKCϵ,100 nM
C=C(C)[C@]12C[C@@H](COC(=O)c3ccccc3)[C@@]34OC5(O[C@@H]1[C@@H]3C1O[C@]1(CO)[C@@H](O)[C@@]1(O)[C@H]4[C@@H](C(C)CCCCCC[C@@H]5O)C(C)[C@@H]1OC(=O)c1ccccc1)O2 (stereo partly drawn) [Gnidimacrin],concentration at which it acts as a PKC activator,PKC [6],≈ 3 nM
same,inhibition of Cdk2,[7],100%
same,concentrations with potent antitumor activity,[8],0.1 to 1 nM
CCCCCCCCc1ccc2c3c(c[nH]c13)C[C@@H](CO)NC(=O)[C@H](C(C)C)N2C [Octylindolactam V],metabolic stability,[9],greater metabolic stability
